Data from ChEMBL document CHEMBL1121591, “Synthesis and antitumor activity of 2,4-diamino-6-(2,5-dimethoxybenzyl)-5-methylpyrido[2,3-d]pyrimidine” (1980).

Tests used:
Type in all cases: functional
L1210 = test: Cytotoxic activity against the L1210 cell cultures; conditions: Mus musculus, read-out: ED50 (the source's name)
W256 = test: Cytotoxic activity against the Walker 256 carcinosarcoma in rats; conditions: Rattus norvegicus, read-out: ED50 (the source's name)
CCRF S-180 = test: Cytotoxic activity against the S180 cell cultures; conditions: Mus musculus, read-out: ED50 (the source's name)

SMILES | EC50 (L1210) | EC50 (W256) | EC50 (CCRF S-180)
CN(Cc1cnc2nc(N)nc(N)c2n1)c1ccc(C(=O)N[C@@H](CCC(=O)O)C(=O)O)cc1 [METHOTREXATE] | 16 nM | 20 nM | 16 nM
Cc1nc(N)nc(N)c1-c1ccc(Cl)c(Cl)c1 [METOPRINE] | 220 nM | 50 nM | 50 nM
COc1ccc(OC)c(Cc2cnc3nc(N)nc(N)c3c2C)c1 [PIRITREXIM] | 2 nM | 8 nM | 12 nM
